From patent US5041567A, “Antibacterial monic acid derivatives” (Beecham Group plc, priority 1982, dated 1991)
In brackets after ≈: the same amount, converted by molar mass. Like-named read-outs stand apart in the source and are kept apart here.

What was measured:
M. suipneumoniae TAM 6N = experiment: MIC against mycoplasma in vitro; type: cell-based; settings: Mesomycoplasma hyopneumoniae, TAM6N, 144 h
E. coli NCTC 10418 [1] = experiment: MIC against human bacteria in vitro; type: cell-based; settings: Escherichia coli, NCTC10418; E. coli NCTC 10418; agar with 5% chocolated horse blood, 18 hours, 37° C.; read-out: MIC
E. coli NCTC 10418 [2] = experiment: MIC against veterinary bacteria in vitro; settings: Escherichia coli, NCTC10418, 18 h
Experimental: (§1) The activity of the compounds of the Examples against various veterinarily important bacteria, was assayed in vitro using two-fold serial dilutions in Diagnostic Sensitivity Test Agar inoculated with 10^4 organisms.

[3] = system: Strep. suis (group D) SPS11; experiment: MIC against veterinary bacteria in vitro; settings: Streptococcus suis, 18 h
Experimental: as §1

S. dublin S7 = experiment: MIC against veterinary bacteria in vitro; settings: Salmonella enterica, S7, 18 h
Experimental: as §1

M. hyorhinis ATCC 25021 = experiment: MIC against mycoplasma in vitro; type: cell-based; settings: Mesomycoplasma hyorhinis, ATCC25021, 144 h; M. hyorhinis ATCC 25021; 6 days, 37° C.; read-out: MIC
M. suipneumoniae Str. 11 = experiment: MIC against mycoplasma in vitro; type: cell-based; settings: Mesomycoplasma hyopneumoniae, 144 h; M. suipneumoniae Str. 11; 6 days, 37° C.; read-out: MIC
Staph. aureus W2827 = experiment: MIC against human bacteria in vitro; type: cell-based; settings: Staphylococcus aureus; Staph. aureus W2827; 5% chocolated horse blood agar, 18 hours; read-out: MIC
M. suipneumoniae NB12 = experiment: MIC against mycoplasma in vitro; type: cell-based; settings: Mesomycoplasma hyopneumoniae, 144 h; M. suipneumoniae NB12; Friis broth, 0.9% agarose, 6 days, 37° C.; read-out: MIC
[4] = system: M. bovigenitalium ATCC 14173; experiment: MIC against mycoplasma in vitro; type: cell-based; settings: 144 h
[5] = system: Ps. aeruginosa NCTC 10662; experiment: MIC against human bacteria in vitro; type: cell-based; settings: Pseudomonas aeruginosa, NCTC10662; Ps. aeruginosa NCTC 10662; 5% chocolated horse blood agar, 18 hours; read-out: MIC
Past. haemolytica PA5 = experiment: MIC against veterinary bacteria in vitro; settings: Mannheimia haemolytica, PA5, 18 h
Experimental: as §1

E. coli E1 = experiment: MIC against veterinary bacteria in vitro; settings: Escherichia coli, E1, 18 h
Experimental: as §1

[6] = system: M. suipneumoniae ATCC 25095; experiment: MIC against mycoplasma in vitro; type: cell-based; settings: Mesomycoplasma hyopneumoniae, ATCC25095, 144 h; M. suipneumoniae ATCC 25095; 6 days, 37° C.; read-out: MIC
[7] = system: Neisseria catarrhalis 1502; experiment: MIC against human bacteria in vitro; type: cell-based; settings: Neisseria catarrhalis 1502; 5% chocolated horse blood agar, 18 hours; read-out: MIC
Staph. aureus Oxford = experiment: MIC against human bacteria in vitro; type: cell-based; settings: Staphylococcus aureus; Staph. aureus Oxford; 5% chocolated horse blood agar, 18 hours; read-out: MIC
P. mirabilis 889 = experiment: MIC against human bacteria in vitro; type: cell-based; settings: Proteus mirabilis; P. mirabilis 889; 5% chocolated horse blood agar, 18 hours; read-out: MIC
Strep. agalactiae 2788-B = experiment: MIC against human bacteria in vitro; type: cell-based; settings: Streptococcus agalactiae; Strep. agalactiae 2788-B; 5% chocolated horse blood agar, 18 hours; read-out: MIC
Strep. pneumoniae CN33 = experiment: MIC against human bacteria in vitro; type: cell-based; settings: Streptococcus pneumoniae; Strep. pneumoniae CN33; 5% chocolated horse blood agar, 18 hours; read-out: MIC
M. suipneumoniae UCD 1 = experiment: MIC against mycoplasma in vitro; type: cell-based; settings: Mesomycoplasma hyopneumoniae, UCD1, 144 h
[8] = system: Strep. pyogenes R80/421-A; experiment: MIC against human bacteria in vitro; type: cell-based; settings: Streptococcus pyogenes
M. suipneumoniae JF 435 = experiment: MIC against mycoplasma in vitro; type: cell-based; settings: Mesomycoplasma hyopneumoniae, JF435, 144 h
[9] = system: Staph. aureus 152 (pen. sens); experiment: MIC against veterinary bacteria in vitro; settings: Staphylococcus aureus, 18 h
Experimental: as §1

Staph. aureus Russell = experiment: MIC against human bacteria in vitro; type: cell-based; settings: Staphylococcus aureus; Staph. aureus Russell; 5% chocolated horse blood agar, 18 hours; read-out: MIC
[10] = system: Haemophilus influenzae Wy21; experiment: MIC against human bacteria in vitro; type: cell-based
[11] = system: Corynebacterium xerosis 9755; experiment: MIC against human bacteria in vitro; type: cell-based; settings: Corynebacterium xerosis 9755; 5% chocolated horse blood agar, 18 hours; read-out: MIC
M. gallisepticum S6 = experiment: MIC against mycoplasma in vitro; type: cell-based; settings: Mycoplasmoides gallisepticum
[12] = system: M. suipneumoniae NCTC 10110; experiment: MIC against mycoplasma in vitro; type: cell-based; settings: Mesomycoplasma hyopneumoniae, NCTC10110, 144 h
M. suipneumoniae MS 16 = experiment: MIC against mycoplasma in vitro; type: cell-based; settings: Mesomycoplasma hyopneumoniae, MS16, 144 h; M. suipneumoniae MS 16; 6 days, 37° C.; read-out: MIC
M. dispar NCTC 10125 = experiment: MIC against mycoplasma in vitro; type: cell-based; settings: 144 h
Sarcina lutea 8340 = experiment: MIC against human bacteria in vitro; type: cell-based; settings: Micrococcus luteus; Sarcina lutea 8340; 5% chocolated horse blood agar, 18 hours; read-out: MIC
Past. multocida PA1 = experiment: MIC against veterinary bacteria in vitro; settings: Pasteurella multocida, PA1, 18 h
Experimental: as §1

[13] = system: M. suipneumoniae PW/C/210; experiment: MIC against mycoplasma in vitro; type: cell-based; settings: Mesomycoplasma hyopneumoniae, 144 h; M. suipneumoniae PW/C/210; 6 days, 37° C.; read-out: MIC
Past. multocida PA2 = experiment: MIC against veterinary bacteria in vitro; settings: Pasteurella multocida, PA2, 18 h
Experimental: as §1

Strep. agalactiae SPA1 = experiment: MIC against veterinary bacteria in vitro; settings: Streptococcus agalactiae, SPA1, 18 h
Experimental: as §1

Structure (SMILES)	MIC (E. coli NCTC 10418 [1]) [µg/mL]	MIC (E. coli NCTC 10418 [2]) [µg/mL]	MIC [3] [µg/mL]	MIC (S. dublin S7) [µg/mL]	MIC (M. hyorhinis ATCC 25021) [µg/mL]	MIC (M. suipneumoniae Str. 11) [µg/mL]	MIC (Staph. aureus W2827) [µg/mL]	MIC (M. suipneumoniae NB12) [µg/mL]	MIC [5] [µg/mL]	MIC (Past. haemolytica PA5) [µg/mL]	MIC (E. coli E1) [µg/mL]	MIC [6] [µg/mL]	MIC (Staph. aureus Oxford) [µg/mL]	MIC (P. mirabilis 889) [µg/mL]	MIC (Strep. agalactiae 2788-B) [µg/mL]	MIC [9] [µg/mL]	MIC (Staph. aureus Russell) [µg/mL]	MIC [11] [µg/mL]	MIC (M. suipneumoniae MS 16) [µg/mL]	MIC (M. dispar NCTC 10125) [µg/mL]	also measured
C/C(=C\c1cc(-c2ccccc2)no1)C[C@@H]1OC[C@H](C[C@@H]2O[C@H]2[C@@H](C)[C@H](C)O)[C@@H](O)[C@H]1O [Example 31, 5-(1-Normon-2-yl)-3-phenylisoxazole A]	> 128	> 80	> 80	> 80	5 (≈ 11.3 µM)	5 (≈ 11.3 µM)	128 (≈ 289 µM)	10 (≈ 22.5 µM)	> 128	> 80	> 80	5 (≈ 11.3 µM)	64 (≈ 144 µM)	> 128	> 128	10 (≈ 22.5 µM)	128 (≈ 289 µM)	> 128	5 (≈ 11.3 µM)	2.5 (≈ 5.64 µM)	MIC (M. suipneumoniae TAM 6N; M. suipneumoniae TAM 6N, 6 days, 37° C., read-out: MIC): 10 µg/mL (≈ 22.5 µM); MIC ([4]; M. bovigenitalium ATCC 14173, 6 days, 37° C., read-out: MIC): 5 µg/mL (≈ 11.3 µM); MIC [7]: 8 µg/mL (≈ 18 µM); MIC (Strep. pneumoniae CN33): > 128 µg/mL; MIC (M. suipneumoniae UCD 1; M. suipneumoniae UCD 1, 6 days, 37° C., read-out: MIC): 10 µg/mL (≈ 22.5 µM); MIC ([8]; Strep. pyogenes R80/421-A, 5% chocolated horse blood agar, 18 hours, read-out: MIC): 128 µg/mL (≈ 289 µM); MIC (M. suipneumoniae JF 435; M. suipneumoniae JF 435, 6 days, 37° C., read-out: MIC): 10 µg/mL (≈ 22.5 µM); MIC ([10]; Haemophilus influenzae Wy21, 5% chocolated horse blood agar, 18 hours, read-out: MIC): 16 µg/mL (≈ 36.1 µM); MIC (M. gallisepticum S6; 144 h, M. gallisepticum S6, 6 days, 37° C., read-out: MIC): > 10 µg/mL; MIC ([12]; M. suipneumoniae NCTC 10110, 6 days, 37° C., read-out: MIC): 10 µg/mL (≈ 22.5 µM)
C/C(=C\c1ncc(-c2ccsc2)o1)C[C@@H]1OC[C@H](C[C@@H]2O[C@H]2[C@@H](C)[C@H](C)O)[C@@H](O)[C@H]1O [Example 20, 5-(3-Thienyl)-2-(1-normon-2-yl) oxazole A]	> 128	> 80	40 (≈ 89 µM)	> 80	0.5 (≈ 1.11 µM)	0.5 (≈ 1.11 µM)	4 (≈ 8.9 µM)	0.5 (≈ 1.11 µM)	> 128	80 (≈ 178 µM)	> 80	0.5 (≈ 1.11 µM)	4 (≈ 8.9 µM)	> 128	2 (≈ 4.45 µM)	0.63 (≈ 1.4 µM)	4 (≈ 8.9 µM)	> 128	0.5 (≈ 1.11 µM)	0.25 (≈ 0.556 µM)	MIC (M. suipneumoniae TAM 6N): 1 µg/mL (≈ 2.22 µM); MIC (Sarcina lutea 8340): > 128 µg/mL; MIC [4]: 0.05 µg/mL (≈ 0.111 µM); MIC (Past. multocida PA1): 2.5 µg/mL (≈ 5.56 µM); MIC [13]: 0.5 µg/mL (≈ 1.11 µM); MIC (Past. multocida PA2): 0.312 µg/mL (≈ 0.694 µM); MIC (M. suipneumoniae UCD 1): 1 µg/mL (≈ 2.22 µM); MIC ([8]; R80/421A, 18 h): 0.25 µg/mL (≈ 0.556 µM); MIC (M. suipneumoniae JF 435): 1 µg/mL (≈ 2.22 µM); MIC (Strep. agalactiae SPA1): 1.25 µg/mL (≈ 2.78 µM); MIC ([10]; Haemophilus influenzae, WY21, 18 h): 0.5 µg/mL (≈ 1.11 µM); MIC (M. gallisepticum S6; S6, 144 h): 2.5 µg/mL (≈ 5.56 µM); MIC [12]: 1 µg/mL (≈ 2.22 µM)
